Data published in US9096629B2, “Process of forming iron hydroxypyrone compounds” (Iron Therapeutics Holdings AG, priority 2011, dated 2015).
Each block holds one compound with its values, some of them ahead of it.

Tests used:
[1] = hydrated ion in aqueous solution; cited from earlier work
[2] = Solubility in water / aqueous solution; type: physicochemical
[3] = Stability of maltol in hot aqueous solution; type: physicochemical; settings: near boiling temperatures

Compound: [Cl][Fe]([Cl])[Cl] [Ferric chloride]
Ka [1]: 7×10^−3

maximum solubility in water ([2]; water, about 25° C.): about 3.5 g/100 ml water
Compound: Cc1occc(=O)c1[O-].Cc1occc(=O)c1[O-].Cc1occc(=O)c1[O-].[Fe+3] [ferric trimaltol]

Compound: [Cl][Fe][Cl] [ferrous chloride]
Ka [1]: 5×10^−9

solubility in aqueous alkali hydroxide solutions ([2]; aqueous alkali hydroxide solutions): very soluble
solubility on heating ([2]; heating to near boiling temperatures): 10 g/100 ml
solubility at low pH ([2]; low pH values of iron chloride solutions (pH 1-5)): virtually insoluble
solubility on heating ([2]; water, heating to temperatures above 60° C.): up to 10 g/100 ml
maximum aqueous solubility ([2]; water, pH range 6-8, 20° C.): 1 g/100 ml
stability in aqueous solution [3]: stable
Compound: Cc1occc(=O)c1O [maltol, 3-hydroxy-2-methyl-4-pyrone]
